Results from ChEMBL document CHEMBL1201862, “PubChem BioAssay data set” (2004).
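Exposure lasted 48 hours, with cells grown in 96-well plates and compounds tested at five concentrations. GI50 = concentration required for 50% inhibition of growth.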 Activity calls are given as the source filed them. No stated cut-off is given here; in the data, active = GI50 up to about 1.1 µM and inactive = higher. Positions of bridges follow the written chain, without caps; N, C: chain ends. Non-standard residues stand in square brackets, D forms with d. Residues, ends and D or L forms follow the SMILES beside them. Aib = CC(C)(N)C(=O)O; βAla = NCCC(=O)O

Key:
Experiment in all cases: DTP human tumour cell line panel, 48 h
HCT-15 = system: HCT-15
HT-29 = system: HT-29
RXF 393 = system: RXF 393
A498 = system: A498
LOX IMVI = system: LOX IMVI
HCC 2998 = system: HCC 2998
KM12 = system: KM12
COLO 205 = system: COLO 205
UACC-62 = system: UACC-62
SK-MEL-5 = system: SK-MEL-5
ACHN = system: ACHN
OVCAR-8 = system: OVCAR-8
NCI-H460 = system: NCI-H460
SK-MEL-2 = system: SK-MEL-2
NCI-H226 = system: NCI-H226
OVCAR-5 = system: OVCAR-5
UACC-257 = system: UACC-257
MDA-MB-435 = system: MDA-MB-435
CAKI-1 = system: CAKI-1
NCI-H522 = system: NCI-H522

Measured: GI50

CC1C2(C)OCC(C#N)(C(=N)O2)C1(C#N)C#N (stereo not given)
13.5 µM: HCT-15
inactive: HT-29 15.8 µM | RXF 393 27.4 µM | A498 88.7 µM | LOX IMVI 17.7 µM | HCC 2998 > 10 µM | KM12 36.2 µM | COLO 205 14.7 µM | UACC-62 24.9 µM | SK-MEL-5 11.3 µM | ACHN 36.5 µM | OVCAR-8 23.9 µM | NCI-H460 18.5 µM | SK-MEL-2 14.4 µM | NCI-H226 67 µM | OVCAR-5 29.1 µM | UACC-257 23.9 µM | MDA-MB-435 28.6 µM | CAKI-1 12.5 µM

CCCc1cc(COC)c(C#N)c(O)n1
inactive: HT-29 > 100 µM | RXF 393 > 100 µM | A498 > 100 µM | LOX IMVI > 100 µM | HCC 2998 > 100 µM | KM12 > 100 µM | COLO 205 > 100 µM | UACC-62 > 100 µM | SK-MEL-5 > 100 µM | ACHN > 100 µM | OVCAR-8 > 100 µM | NCI-H460 > 100 µM | NCI-H226 17.5 µM | NCI-H522 > 100 µM | OVCAR-5 > 100 µM | UACC-257 > 100 µM | MDA-MB-435 > 100 µM | CAKI-1 > 100 µM
> 100 µM: HCT-15

CC(C)(C)c1c2c(c(C(C)(C)C)c3c1OCN(Cc1ccccc1)C3)OCN(Cc1ccccc1)C2
inactive: HT-29 16.7 µM | RXF 393 14.7 µM | A498 6 µM | LOX IMVI 16.3 µM | HCC 2998 10.5 µM | KM12 21.3 µM | COLO 205 13.7 µM | UACC-62 17.7 µM | SK-MEL-5 8.87 µM | ACHN 17.8 µM | OVCAR-8 26.2 µM | NCI-H460 15.1 µM | SK-MEL-2 16.6 µM | NCI-H522 10.9 µM | OVCAR-5 13.4 µM | UACC-257 12.8 µM | MDA-MB-435 28.5 µM | CAKI-1 33.2 µM
16.5 µM: HCT-15

O=c1[nH]c2cc(C(F)(F)F)ccc2nc1Cc1ccccc1
inactive: HT-29 > 100 µM | RXF 393 37.7 µM | A498 85.9 µM | LOX IMVI > 100 µM | HCC 2998 > 100 µM | KM12 > 100 µM | COLO 205 > 100 µM | UACC-62 > 100 µM | SK-MEL-5 > 100 µM | ACHN 52.6 µM | OVCAR-8 80.2 µM | NCI-H460 > 100 µM | SK-MEL-2 > 100 µM | NCI-H226 > 100 µM | UACC-257 > 100 µM | MDA-MB-435 > 100 µM | CAKI-1 60.4 µM
> 100 µM: HCT-15

Cc1cn(C2CC(O)C(Cn3cc(Cn4ncc(=O)[nH]c4=O)nn3)O2)c(=O)[nH]c1=O (stereo not given)
inactive: HT-29 > 100 µM | RXF 393 > 100 µM | A498 > 100 µM | LOX IMVI > 100 µM | HCC 2998 > 100 µM | KM12 > 100 µM | COLO 205 > 100 µM | UACC-62 > 100 µM | SK-MEL-5 > 100 µM | ACHN > 100 µM | OVCAR-8 > 100 µM | SK-MEL-2 > 100 µM | NCI-H226 > 100 µM | NCI-H522 > 100 µM | OVCAR-5 > 100 µM | UACC-257 > 100 µM | MDA-MB-435 > 100 µM | CAKI-1 > 100 µM
> 100 µM: HCT-15

N#CC1C(=O)N(c2ccccc2)NC12OC(=O)c1ccncc12 (stereo not given)
inactive: HT-29 > 20 µM | RXF 393 > 20 µM | A498 > 20 µM | LOX IMVI > 20 µM | HCC 2998 > 20 µM | COLO 205 > 20 µM | UACC-62 > 20 µM | SK-MEL-5 > 20 µM | ACHN > 20 µM | OVCAR-8 > 20 µM | NCI-H460 > 20 µM | SK-MEL-2 > 20 µM | NCI-H226 > 20 µM | NCI-H522 > 20 µM | OVCAR-5 > 20 µM | UACC-257 > 20 µM | MDA-MB-435 > 20 µM | CAKI-1 > 20 µM
> 20 µM: HCT-15

Nc1nc(N)c2nc(CNc3ccc(C(=O)NC(CCC(=O)O)C(=O)O)cc3F)cnc2n1 (stereo not given)
< 0.01 µM: HCT-15
active: HT-29 < 0.01 µM | A498 < 0.01 µM | LOX IMVI < 0.01 µM | KM12 < 0.01 µM | UACC-62 < 0.01 µM | SK-MEL-5 < 0.0128 µM | ACHN < 0.01 µM | OVCAR-8 < 0.01 µM | NCI-H460 < 0.01 µM | NCI-H522 < 0.01 µM | MDA-MB-435 < 0.01 µM | CAKI-1 < 0.01 µM
inactive: RXF 393 > 100 µM | COLO 205 > 48.2 µM | SK-MEL-2 > 59 µM | NCI-H226 > 100 µM | OVCAR-5 > 100 µM | UACC-257 > 100 µM

O=S(=O)(CCC[C@H]1[C@@H](CCOCc2ccccc2)C2CCCN1O2)c1ccccc1 (stereo not given in full)
> 100 µM: HCT-15
inactive: HT-29 > 100 µM | RXF 393 > 100 µM | A498 > 100 µM | HCC 2998 > 100 µM | KM12 > 100 µM | COLO 205 > 100 µM | UACC-62 > 100 µM | SK-MEL-5 43.3 µM | ACHN > 100 µM | OVCAR-8 > 100 µM | NCI-H460 > 100 µM | NCI-H226 > 100 µM | NCI-H522 > 100 µM | OVCAR-5 > 100 µM | UACC-257 > 100 µM | MDA-MB-435 > 100 µM | CAKI-1 > 100 µM

CC(C)(C)C1CCC2c3c([nH]c4ccccc34)C3C(=O)N(c4ccccc4[N+](=O)[O-])C(=O)C3C2C1 (stereo not given)
11.2 µM: HCT-15
inactive: HT-29 4.32 µM | RXF 393 6.65 µM | A498 15.5 µM | LOX IMVI 11.9 µM | HCC 2998 4.14 µM | COLO 205 10.5 µM | UACC-62 12.2 µM | SK-MEL-5 13.5 µM | ACHN 9.1 µM | OVCAR-8 16.6 µM | NCI-H460 4.25 µM | SK-MEL-2 14.9 µM | NCI-H226 20.2 µM | OVCAR-5 16.9 µM | UACC-257 22.2 µM | MDA-MB-435 19.1 µM | CAKI-1 5.66 µM

COC(=O)C(=O)CC(=O)c1cccc(OC)c1
> 100 µM: HCT-15
inactive: HT-29 > 100 µM | RXF 393 > 100 µM | A498 > 100 µM | LOX IMVI > 100 µM | HCC 2998 > 100 µM | KM12 > 100 µM | COLO 205 > 100 µM | UACC-62 > 100 µM | SK-MEL-5 > 100 µM | ACHN > 100 µM | OVCAR-8 > 100 µM | NCI-H460 > 100 µM | NCI-H226 > 100 µM | OVCAR-5 > 100 µM | UACC-257 > 100 µM | MDA-MB-435 > 100 µM | CAKI-1 > 100 µM

CC1(C)NC(=O)C(NC(=O)C(N)CC(=O)O)CCCCNC(=O)CCNC1=O (stereo not given) (H-DK[Aib][βAla]; lactam 2-C; configuration not given here)
inactive: HT-29 > 100 µM | RXF 393 > 100 µM | A498 > 100 µM | LOX IMVI > 100 µM | KM12 > 100 µM | COLO 205 > 100 µM | UACC-62 > 100 µM | SK-MEL-5 > 100 µM | ACHN > 100 µM | OVCAR-8 > 100 µM | NCI-H460 > 100 µM | SK-MEL-2 > 100 µM | NCI-H226 > 100 µM | NCI-H522 > 100 µM | OVCAR-5 > 100 µM | UACC-257 > 100 µM | MDA-MB-435 > 100 µM | CAKI-1 > 100 µM
> 100 µM: HCT-15
